Columns and labels:
[1] = target: T1, Rat Kidney Medullary V2 Receptors (Rattus norvegicus, UniProt Q00788); assay: Binding Assay to Rat Kidney Medullary V2 Receptors; details: rat kidney medulla membranes; read-out: V2 IC50
T1 construct: Medullary tissues from rat kidneys are dissected out; from tissue; host or cells: rat kidney medulla membranes
In short: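 IC50 derived from competition curves; bound tritium counted by liquid scintillation after filtration. Rat medullary kidney membranes (Tris-HCl pH 7.4, BSA, PMSF) were incubated 120 min to equilibrium with radioligand and test compound (added in 50% DMSO). Nonspecific binding: 1.0 μM unlabeled ligand.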

oxytocin receptors = target: T2, oxytocin receptors (Rattus norvegicus, UniProt P70536); assay: Oxytocin Receptor Binding; details: for IC50: 1.0 nM [3H]oxytocin; for inhibition at 10 µM: [3H]oxytocin
T2 construct: The uteri are dissected out, cleaned of fat and connective tissues; from tissue; host or cells: uterus of DES-treated female Sprague-Dawley rats
T2 sequence (P70536 1-388): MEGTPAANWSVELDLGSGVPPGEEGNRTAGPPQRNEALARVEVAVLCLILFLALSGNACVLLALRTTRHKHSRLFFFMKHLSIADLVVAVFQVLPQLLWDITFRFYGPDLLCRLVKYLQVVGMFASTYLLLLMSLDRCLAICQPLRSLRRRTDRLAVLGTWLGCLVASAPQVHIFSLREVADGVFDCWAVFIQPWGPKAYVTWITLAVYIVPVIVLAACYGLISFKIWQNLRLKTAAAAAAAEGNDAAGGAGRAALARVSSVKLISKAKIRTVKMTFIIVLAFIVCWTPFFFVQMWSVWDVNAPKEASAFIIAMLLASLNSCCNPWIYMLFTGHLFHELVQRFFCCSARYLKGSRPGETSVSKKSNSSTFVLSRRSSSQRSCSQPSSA
In short: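 IC50 is the concentration displacing 50% of 1.0 nM [3H]OT, incubated 60 min at 22 °C in pH 7.4 Tris/MgCl2 buffer plus protease inhibitors, then filtered. Receptor source: uterine membranes from rats given 0.3 mg/kg DES i.m. 18 h earlier. 1.0 uM cold OT defined non-specific binding.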

Vasopressin V1 = Vasopressin V1 Antagonist Activity in Conscious Rats (vasopressin vasopressor response); type: in vivo, rat; design: Average Change: unit not given here; details: for % Inhibition / Average Change: SHR
In short: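 Conscious rats are restrained supine, and under local 2% procaine a PE 10/20 cannula is passed through the ventral caudal tail artery into the lower abdominal aorta. The caudal vein is cannulated for intravenous dosing. Blood pressure is recorded with a Statham P23Db transducer, and vasopressin injections are repeated after compound dosing. Percent antagonism is calculated against the pre-drug vasopressor response taken as 100%.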

[2] = 10 mg/kg p.o., VAS 0.01 i.u./kg, 30 min
[3] = 10 mg/kg p.o., VAS 0.01 i.u./kg, 60 min
[4] = 10 mg/kg p.o., VAS 0.01 i.u./kg, 90 min
[5] = 10 mg/kg p.o., VAS 0.01 i.u./kg, 120 min
[6] = 10 mg/kg p.o., VAS 0.01 i.u./kg, 180 min
[7] = 10 mg/kg p.o., VAS 0.01 i.u./kg, 240 min
[8] = 10 mg/kg p.o., VAS 0.02 i.u./kg, 30 min
[9] = 10 mg/kg p.o., VAS 0.02 i.u./kg, 60 min
[10] = 10 mg/kg p.o., VAS 0.02 i.u./kg, 90 min
[11] = 10 mg/kg p.o., VAS 0.02 i.u./kg, 120 min
[12] = 10 mg/kg p.o., VAS 0.02 i.u./kg, 180 min
[13] = 10 mg/kg p.o., VAS 0.02 i.u./kg, 240 min
[14] = 10 mg/kg i.v., VAS 0.01 i.u./kg, 30 min
[15] = 10 mg/kg i.v., VAS 0.01 i.u./kg, 60 min
[16] = 10 mg/kg i.v., VAS 0.01 i.u./kg, 90 min
[17] = 10 mg/kg i.v., VAS 0.01 i.u./kg, 120 min
[18] = 10 mg/kg i.v., VAS 0.01 i.u./kg, 180 min
[19] = 10 mg/kg i.v., VAS 0.01 i.u./kg, 240 min
[20] = 10 mg/kg i.v., VAS 0.01 i.u./kg, 300 min
[21] = 10 mg/kg i.v., VAS 0.02 i.u./kg, 30 min
[22] = 10 mg/kg i.v., VAS 0.02 i.u./kg, 60 min
[23] = 10 mg/kg i.v., VAS 0.02 i.u./kg, 90 min
[24] = 10 mg/kg i.v., VAS 0.02 i.u./kg, 120 min
[25] = 10 mg/kg i.v., VAS 0.02 i.u./kg, 180 min
[26] = 10 mg/kg i.v., VAS 0.02 i.u./kg, 240 min
[27] = 10 mg/kg i.v., VAS 0.02 i.u./kg, 300 min

T1 sequence (Q00788 whole entry): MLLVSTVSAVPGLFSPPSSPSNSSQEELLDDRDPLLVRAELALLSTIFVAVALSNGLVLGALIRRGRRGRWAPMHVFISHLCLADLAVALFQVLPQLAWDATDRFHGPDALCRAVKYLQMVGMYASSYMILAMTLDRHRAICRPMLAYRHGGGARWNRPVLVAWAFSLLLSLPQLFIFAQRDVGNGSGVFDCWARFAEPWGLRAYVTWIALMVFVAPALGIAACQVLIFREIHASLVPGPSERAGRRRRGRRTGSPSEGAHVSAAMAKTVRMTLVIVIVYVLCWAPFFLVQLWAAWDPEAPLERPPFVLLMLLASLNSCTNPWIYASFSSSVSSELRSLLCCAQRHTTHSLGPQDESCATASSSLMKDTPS

SMILES: O=C(Nc1ccc(C(=O)N2Cc3cccn3Cc3ccccc32)cc1)c1cc(Cl)ccc1Cl [Example 4, N-[4-(5H-pyrrolo[2,1-c][1,4]benzodiazepin-10(11H)-ylcarbonyl)phenyl]-2,5-dichlorobenzamide]
- IC50 [1]: 14 nM
- IC50 (oxytocin receptors): 660 nM
- inhibition at 10 µM (oxytocin receptors): 98%
- % Inhibition (Vasopressin V1; [2]): 6%
- Average Change (Vasopressin V1; [2]): 44.5
- % Inhibition (Vasopressin V1; [3]): 36%
- Average Change (Vasopressin V1; [3]): 30.5
- % Inhibition (Vasopressin V1; [4]): 19%
- Average Change (Vasopressin V1; [4]): 38.5
- % Inhibition (Vasopressin V1; [5]): 32%
- Average Change (Vasopressin V1; [5]): 32.5
- % Inhibition (Vasopressin V1; [6]): 25%
- Average Change (Vasopressin V1; [6]): 35.5
- % Inhibition (Vasopressin V1; [7]): 39%
- Average Change (Vasopressin V1; [7]): 29
- % Inhibition (Vasopressin V1; [8]): 27%
- Average Change (Vasopressin V1; [8]): 36
- % Inhibition (Vasopressin V1; [9]): 10%
- Average Change (Vasopressin V1; [9]): 44.5
- % Inhibition (Vasopressin V1; [10]): -5%
- Average Change (Vasopressin V1; [10]): 52
- % Inhibition (Vasopressin V1; [11]): -2%
- Average Change (Vasopressin V1; [11]): 50.5
- % Inhibition (Vasopressin V1; [12]): 11%
- Average Change (Vasopressin V1; [12]): 44
- % Inhibition (Vasopressin V1; [13]): 47%
- Average Change (Vasopressin V1; [13]): 26

SMILES: O=C(Nc1ccc(C(=O)N2Cc3cccn3Cc3ccccc32)cc1)c1ccc(Cl)cc1Cl [Example 6, N-[4-(5H-pyrrolo[2,1-c][1,4]benzodiazepin-10(11H)-ylcarbonyl)phenyl]-2,4-dichlorobenzamide]
- IC50 [1]: 3 nM
- IC50 (oxytocin receptors): 350 nM
- inhibition at 10 µM (oxytocin receptors): 92%
- % Inhibition (Vasopressin V1; [14]): 85%
- Average Change (Vasopressin V1; [14]): 5.5
- % Inhibition (Vasopressin V1; [15]): 79%
- Average Change (Vasopressin V1; [15]): 7.5
- % Inhibition (Vasopressin V1; [16]): 63%
- Average Change (Vasopressin V1; [16]): 13.5
- % Inhibition (Vasopressin V1; [17]): 59%
- Average Change (Vasopressin V1; [17]): 15
- % Inhibition (Vasopressin V1; [18]): 44%
- Average Change (Vasopressin V1; [18]): 20.5
- % Inhibition (Vasopressin V1; [19]): 34%
- Average Change (Vasopressin V1; [19]): 24
- % Inhibition (Vasopressin V1; [20]): 30%
- Average Change (Vasopressin V1; [20]): 25.5
- % Inhibition (Vasopressin V1; [21]): 62%
- Average Change (Vasopressin V1; [21]): 16
- % Inhibition (Vasopressin V1; [22]): 45%
- Average Change (Vasopressin V1; [22]): 23
- % Inhibition (Vasopressin V1; [23]): 36%
- Average Change (Vasopressin V1; [23]): 27
- % Inhibition (Vasopressin V1; [24]): 30%
- Average Change (Vasopressin V1; [24]): 29.5
- % Inhibition (Vasopressin V1; [25]): 17%
- Average Change (Vasopressin V1; [25]): 35
- % Inhibition (Vasopressin V1; [26]): 15%
- Average Change (Vasopressin V1; [26]): 35.5
- % Inhibition (Vasopressin V1; [27]): 14%
- Average Change (Vasopressin V1; [27]): 36

SMILES: O=C(Nc1ccc(C(=O)N2Cc3cccn3Cc3ccccc32)cc1)c1ccccc1Cl [Example 7]
- IC50 [1]: 5 nM
- IC50 (oxytocin receptors): 130 nM
- inhibition at 10 µM (oxytocin receptors): 97%
- % Inhibition (Vasopressin V1; [14]): 87%
- Average Change (Vasopressin V1; [14]): 6
- % Inhibition (Vasopressin V1; [15]): 87%
- Average Change (Vasopressin V1; [15]): 6
- % Inhibition (Vasopressin V1; [16]): 82%
- Average Change (Vasopressin V1; [16]): 8.5
- % Inhibition (Vasopressin V1; [17]): 80%
- Average Change (Vasopressin V1; [17]): 9.5
- % Inhibition (Vasopressin V1; [18]): 63%
- Average Change (Vasopressin V1; [18]): 17.5
- % Inhibition (Vasopressin V1; [19]): 56%
- Average Change (Vasopressin V1; [19]): 20.5
- % Inhibition (Vasopressin V1; [20]): 57%
- Average Change (Vasopressin V1; [20]): 20
- % Inhibition (Vasopressin V1; [21]): 87%
- Average Change (Vasopressin V1; [21]): 7.5
- % Inhibition (Vasopressin V1; [22]): 86%
- Average Change (Vasopressin V1; [22]): 8
- % Inhibition (Vasopressin V1; [23]): 78%
- Average Change (Vasopressin V1; [23]): 12.5
- % Inhibition (Vasopressin V1; [24]): 77%
- Average Change (Vasopressin V1; [24]): 13
- % Inhibition (Vasopressin V1; [25]): 59%
- Average Change (Vasopressin V1; [25]): 23
- % Inhibition (Vasopressin V1; [26]): 46%
- Average Change (Vasopressin V1; [26]): 30.5
- % Inhibition (Vasopressin V1; [27]): 59%
- Average Change (Vasopressin V1; [27]): 23

SMILES: O=C(Nc1ccc(C(=O)N2Cc3cccn3-c3ccccc32)cc1)c1ccc(Cl)cc1Cl [Example 17, N-[4-(pyrrolo(1,2-a]quinoxalin-5(4H)-ylcarbonyl)phenyl]-2,4-dichloro-benzamide]
- IC50 [1]: 110 nM
- inhibition at 10 µM (oxytocin receptors): 31%
- Max. % Inhibition (Vasopressin V1; 30 mg/kg i.v.): 50%
- Time (of max. % inhibition) (Vasopressin V1; 30 mg/kg i.v.): 60 min

Source: patent US5624923A, “Tricyclic diazepine vasopressin antagonists and oxytocin antagonists” (priority 1995, dated 1997)
